Measured values published in patent publication US20250169495A1, “COMPOSITIONS AND METHODS FOR CONTROLLING DROSOPHILA FLIES” (Rutgers, The State University of New Jersey, priority 2023, published 2025).

How the values were obtained:
[1] = system: Drosophila suzukii adults; assay: Multiple choice bioassay #2: known and putative repellents; format: in vivo; conditions: 50 μL neat; six traps per arena; 24 h; n=6
Protocol: Within each arena, six gated traps were positioned randomly in a circle (40 cm diameter) at equal distance with each trap 20 cm apart along the circumference. Each gated trap contained ˜5 g of store-bought organic blueberry fruit (n=5), as described elsewhere herein. One of the six traps served as a control (with blueberry fruit only) and the remaining five traps had one of the repellents added to the blueberry fruit. Each volatile (50 μL, neat) was released from a 1 mL polyethylene vial with a piece of cotton placed inside each trap (control traps had vials with cotton but without the volatile). A vial with a cotton ball soaked with deionized water was placed in the middle of the arena. Roughly 150 D. suzukii adults (1:1 male: female ratio) were released inside each arena and the number and sex of flies inside treatment and control traps was recorded after 24 h. The experiment started at 1:00 p.m., was replicated 6 times, and was done in a laboratory under 22±2° C., 55±5% RH, 16:8 (L:D) h. Data from multiple choice assays on the percent of male and female D. suzukii adults responding to each volatile were compared using ANOVA (Minitab version 17; Minitab Inc., State College, PA, USA). The ANOVA model included treatment, sex, and their interaction as fixed factors and block (replicate) as a random factor. A multi-comparison Tukey test (Minitab) was used to determine differences among treatments. Percent data were arcsine square-root transformed prior to ANOVA. Pairwise choice assays were analyzed using G-tests with William's correction. Non-responders were excluded from the statistical analyses.

[2] = Emission rate from polyethylene sachets, field cages; format: physicochemical; conditions: field cage; sachets weighed before and 3 days after deployment
From the text: Twenty-four hours after deploying the sachets, 120 flies (approximately 60 males and 60 females) were released into each cage at 18:00 hrs (N=120 flies×4 treatments×4 replicates=1,920 total flies). To ensure even distribution within the cages, 30 flies were released at four equidistant points between the bushes. A pre-sampling of the berries, conducted before the flies were released, confirmed the absence of any infestation. Berries were then collected 1-, 2-, and 3-days post-treatment. From every other bush (starting at the focal bush) in the cage, 50 berries from the top half and 50 from the bottom half were collected into two separate 236.6 mL deli containers lined with two cotton pads. From each berry sample, a random subsample of 10 berries were examined and egg counts recorded before being returned to the original container. The blueberries were incubated on a light bench in the laboratory for up to two weeks, as previously described, and adult emergence was recorded. The sachets were weighed before deployment and 3 days after deployment to measure the emission rates of each compound. Finally, the emission rates of compounds in the semi-field and field cage studies were calculated by subtracting the final weight of the sachets from the initial weight and dividing by the time interval (24 h or 3 days). These rates were then compared across repellent treatments using ANOVA, with Tukey pairwise comparisons conducted when significant differences were found.

[3] = system: male and female Drosophila suzukii antennae; assay: Electroantennogram (EAG) assay; conditions: for antennal (EAG) response: 0.001-10 mg doses in hexane, N=10; for strength of EAG response compared among treatments: 0.001-10 mg doses
Protocol: Electroantennogram (EAG) assays were conducted to determine the antennal response of sexually mature male and female D. suzukii to ethyl butanoate, ethyl (E)-but-2-enoate, and 2-pentylfuran. The antennal responses of male and female D. suzukii to each compound were tested at five doses (0.001 mg, 0.01 mg, 0.1 mg, 1 mg, and 10 mg) diluted in hexane. The stimulus cartridge preparations, antennal preparations, and EAG apparatus used were similar to those previously described in the literature. Stimulus applicators consisted of a 14.5-cm-long glass Pasteur pipette containing 20 μL of each volatile dose (or hexane control) pipetted onto a 6×0.5-cm strip of filter paper. The applicators containing the impregnated filter paper were placed under the fume hood for 2 min to allow the hexane to evaporate. For the recording and base electrodes, a silver wire was inserted into a drawn capillary tube filled with phosphate-buffered saline (NaCl, 4 g; NA2HPO4, 0.57 g; KH2PO4, 0.1 g; KCl, 0.1 g in 500 ml distilled water). To attach the base electrode to the fly, the fly's abdomen was removed, and the sharp tip of the saline-filled capillary tube was pulled directly into the thoracic cavity. Once the fly preparation was mounted, the recording electrode was carefully moved toward the antenna using a micromanipulator until the antenna touched the pool of saline solution on the recording electrode. Antennal preparations were exposed to a constant stream of charcoal-filtered and humidified air at a rate of 1.5 l/min.
The EAG apparatus consisted of an IDAC-02 interface board for data acquisition and used Syntech software (Syntech Ltd., Hilversum, The Netherlands) for recording, storing, and quantifying EAG responses. Antennal preparations were primed with 1 mg of acetoin, a known attractant and antennally active compound, to ensure that the antennae were prepared correctly and responsive (positive control). Then, the antennae were exposed to a hexane control, followed by exposure to increasing doses of one of the volatiles. Each antenna was exposed to four rounds of each dose of a single compound before being discarded. Six antennae were tested daily: three from males and three from females. Test and control compounds were applied at 10 second(s) intervals at a pulse rate of 0.5 s, with a 1-min interval between each stimulus. Maximum amplitudes of depolarizations were measured (in millivolts) for each compound with the response from the hexane-only controls subtracted from the other doses to normalize the antennal response. In total, each dose of each compound was replicated 10 times for each sex.
To analyze the effect of dose of the three repellents on D. suzukii antennal responses, a generalized linear model (GLM) was used with a Poisson distribution and a log link function in SPSS Statistics 23.0 (IBM Corp, Armonk, NY, USA). The model included ‘Treatment’ (ethyl butanoate, ethyl (E)-but-2-enoate, and 2-pentylfuran), ‘Dose’, ‘Sex’, and their interactions as independent variables. This analysis, when significant, was followed by post hoc Bonferroni tests (α=0.05) to determine individual differences among groups. Prior to analysis, EAG data were normalized relative to the response to the hexane control.

| emission rate (mean±SE) [2] | SMILES | strength of repellency among the five repellents (rank) [1] | antennal (EAG) response [3] | strength of EAG response compared among treatments [3] |
| --- | --- | --- | --- | --- |
| 559.73 ± 23.54 mg/day | CCCCCc1ccco1 [2-pentylfuran, reference compound] | the least repellent | dose-dependent antennal responses | – |
| 679.23 ± 17.73 mg/day | C/C=C/C(=O)OCC [ethyl (E)-but-2-enoate] | the most repellent | dose-dependent antennal responses | stronger antennal responses than 2-pentylfuran |
| 697.97 ± 7.96 mg/day | CCCC(=O)OCC [ethyl butanoate] | – | dose-dependent antennal responses | stronger antennal responses than 2-pentylfuran |
